Publication PMC8048960 (Chemmedchem, 2020)
Peptide text beside a SMILES is read from it. * marks the point of attachment. Cbz = O=C(OCc1ccccc1)*

Tests used:
[1] = target: GFP‐tagged LRRK2 in transfected HEK293 cells (Homo sapiens, UniProt Q5S007); assay: Ubiquitin assay; type: cell-based; conditions: 24 h; for LRRK2 ubiquitination (ubiquitin signal): 10 µM, with or without 5 µM MG132, compared to DMSO
[2] = target: purified full‐length Strep flag LRRK2 (Homo sapiens, UniProt Q5S007); assay: In vitro radioactive kinase assay; type: biochemical
[3] = cited from earlier work
LRRK2 [4] = conditions: read-out: Ki in the biochemical assay; cited from earlier work
LRRK2 [5] = conditions: read-out: IC50 in the cellular assay; cited from earlier work
kinome = conditions: kinases hit out of panel of 187; cited from earlier work

Sequence of GFP‐tagged LRRK2 in transfected HEK293 cells (Q5S007 whole entry): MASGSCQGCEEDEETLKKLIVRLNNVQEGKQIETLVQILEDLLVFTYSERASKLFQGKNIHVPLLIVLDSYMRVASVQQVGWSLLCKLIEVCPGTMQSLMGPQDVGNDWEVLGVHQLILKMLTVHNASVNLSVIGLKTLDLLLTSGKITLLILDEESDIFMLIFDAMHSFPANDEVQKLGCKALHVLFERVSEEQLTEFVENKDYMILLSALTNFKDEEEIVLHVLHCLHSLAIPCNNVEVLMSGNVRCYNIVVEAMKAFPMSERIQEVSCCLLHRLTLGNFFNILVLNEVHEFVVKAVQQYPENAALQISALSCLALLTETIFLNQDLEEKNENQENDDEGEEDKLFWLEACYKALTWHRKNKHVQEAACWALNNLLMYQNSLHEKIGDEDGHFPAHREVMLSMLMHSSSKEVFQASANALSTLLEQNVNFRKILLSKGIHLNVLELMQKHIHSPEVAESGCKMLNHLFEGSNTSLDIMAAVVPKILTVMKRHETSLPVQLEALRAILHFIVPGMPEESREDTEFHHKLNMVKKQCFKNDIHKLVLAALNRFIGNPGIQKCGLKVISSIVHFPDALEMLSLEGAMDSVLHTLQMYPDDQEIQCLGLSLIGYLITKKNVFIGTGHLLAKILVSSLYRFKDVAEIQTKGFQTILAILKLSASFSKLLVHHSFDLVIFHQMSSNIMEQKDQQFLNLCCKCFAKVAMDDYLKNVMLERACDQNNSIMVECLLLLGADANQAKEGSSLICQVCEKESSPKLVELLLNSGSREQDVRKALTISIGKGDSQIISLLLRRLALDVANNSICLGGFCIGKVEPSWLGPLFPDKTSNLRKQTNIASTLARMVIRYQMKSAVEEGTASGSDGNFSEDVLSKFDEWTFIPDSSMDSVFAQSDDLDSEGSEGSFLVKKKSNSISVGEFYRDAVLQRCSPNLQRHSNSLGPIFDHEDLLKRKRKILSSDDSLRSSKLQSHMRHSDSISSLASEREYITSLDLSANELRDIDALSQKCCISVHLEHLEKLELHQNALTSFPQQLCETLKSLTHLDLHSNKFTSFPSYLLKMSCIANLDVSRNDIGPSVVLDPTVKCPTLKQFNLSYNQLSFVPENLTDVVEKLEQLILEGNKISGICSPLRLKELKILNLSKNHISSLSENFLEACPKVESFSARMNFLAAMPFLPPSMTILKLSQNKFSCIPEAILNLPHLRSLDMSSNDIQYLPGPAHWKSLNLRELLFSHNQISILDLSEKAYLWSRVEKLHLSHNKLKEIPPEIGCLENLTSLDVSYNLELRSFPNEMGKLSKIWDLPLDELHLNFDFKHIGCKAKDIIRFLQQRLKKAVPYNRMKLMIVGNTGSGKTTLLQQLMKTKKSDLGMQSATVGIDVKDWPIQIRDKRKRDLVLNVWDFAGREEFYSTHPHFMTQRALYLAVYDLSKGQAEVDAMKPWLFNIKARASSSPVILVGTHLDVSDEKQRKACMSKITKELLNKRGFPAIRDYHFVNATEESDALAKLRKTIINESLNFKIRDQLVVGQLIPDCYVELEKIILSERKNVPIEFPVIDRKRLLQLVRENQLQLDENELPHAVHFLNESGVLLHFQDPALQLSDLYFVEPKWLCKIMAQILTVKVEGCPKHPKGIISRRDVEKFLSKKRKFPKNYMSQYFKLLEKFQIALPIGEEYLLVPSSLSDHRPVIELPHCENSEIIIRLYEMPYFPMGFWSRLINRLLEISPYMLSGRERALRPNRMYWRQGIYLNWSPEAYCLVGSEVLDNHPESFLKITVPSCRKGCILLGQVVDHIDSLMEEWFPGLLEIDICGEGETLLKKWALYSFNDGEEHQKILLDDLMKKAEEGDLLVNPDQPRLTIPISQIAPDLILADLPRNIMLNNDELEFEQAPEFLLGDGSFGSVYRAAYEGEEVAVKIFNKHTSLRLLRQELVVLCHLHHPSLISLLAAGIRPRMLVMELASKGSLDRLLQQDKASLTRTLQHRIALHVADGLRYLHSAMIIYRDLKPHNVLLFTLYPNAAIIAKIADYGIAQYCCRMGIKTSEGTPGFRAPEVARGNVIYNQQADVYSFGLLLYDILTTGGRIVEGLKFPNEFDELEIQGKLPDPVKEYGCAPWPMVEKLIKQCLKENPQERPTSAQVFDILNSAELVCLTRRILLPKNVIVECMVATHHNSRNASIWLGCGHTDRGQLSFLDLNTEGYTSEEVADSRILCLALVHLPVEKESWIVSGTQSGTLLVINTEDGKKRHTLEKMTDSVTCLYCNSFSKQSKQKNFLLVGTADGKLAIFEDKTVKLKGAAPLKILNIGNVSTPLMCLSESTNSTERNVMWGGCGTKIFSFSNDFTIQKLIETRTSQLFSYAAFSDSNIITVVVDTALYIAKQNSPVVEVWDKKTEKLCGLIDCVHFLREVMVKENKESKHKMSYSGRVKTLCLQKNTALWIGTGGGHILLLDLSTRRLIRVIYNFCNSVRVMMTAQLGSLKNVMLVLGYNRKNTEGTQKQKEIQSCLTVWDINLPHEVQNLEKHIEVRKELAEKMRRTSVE
Sequence of purified full‐length Strep flag LRRK2 (Q5S007 whole entry): as above

CC(C)C[C@@H](C=O)NC(=O)[C@H](CC(C)C)NC(=O)[C@H](CC(C)C)NC(=O)OCc1ccccc1 [MG132] (Cbz-Leu-Leu-Leu-aldehyde)
ubiquitin signal ([1]; 5 µM MG132 (proteasome inhibitor)): can enhance the ubiquitin signal

CCNc1nc(Nc2cc(F)c(C(=O)N3CCOCC3)cc2OC)ncc1C(F)(F)F [GNE‐7915]
IC50 [2]: 17.3 ± 6.76 nM | LRRK2 ubiquitination (ubiquitin signal) [1]: neither the original kinase inhibitor (11) nor PROTAC (33) increase LRRK2 ubiquitination | brain penetration [3]: brain penetrant | Ki (LRRK2 [4]): 2 nM | IC50 (LRRK2 [5]): 9 nM | kinome selectivity (kinome): 1 out of 187

CCNc1nc(Nc2cc(F)c(C(=O)NCCCCNc3cccc4c3C(=O)N(C3CCC(=O)NC3=O)C4=O)cc2OC)ncc1C(F)(F)F (stereo not drawn) [PROTAC 33]
IC50 [2]: 14.7 ± 6.14 nM | LRRK2 ubiquitination (ubiquitin signal) [1]: unable to increase the ubiquitin signal
